Laboratory results reported in the supplement of paper PMC10307832.

Experiments:
Test in all cases: relative viability (nuclei count vs DMSO), 5 days (fraction); higher = more cells survive
[1] = compound: COc1cc2ncn(-c3cc(OCc4ccccc4C(F)(F)F)c(C(N)=O)s3)c2cc1OC + O=C(CCCCCCC(=O)Nc1ccccc1)NO [Vorinostat] (partner 1 µM)
In short: (§1)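 Relative viability was taken as the ratio of nuclei in treated wells to nuclei in vehicle wells. Lung cancer cell lines in 1536-well plates received compounds by pin tool one day after seeding, either one drug alone or a fixed anchor-drug dose plus five library-drug doses (not always all listed) in √10 steps. Nuclei were counted on 4× images after 5 days of treatment, and values are medians of duplicate plates.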

[2] = compound: COc1cc2ncn(-c3cc(OCc4ccccc4C(F)(F)F)c(C(N)=O)s3)c2cc1OC + C[C@]1(O)C[C@@H](c2nc(-c3ccc4ccc(-c5ccccc5)nc4c3)c3c(N)nccn32)C1 [Linsitinib] (partner 1 µM)
In short: as §1

[3] = compound: COc1cc2ncn(-c3cc(OCc4ccccc4C(F)(F)F)c(C(N)=O)s3)c2cc1OC + CC1(C)CCC(c2ccc(Cl)cc2)=C(CN2CCN(c3ccc(C(=O)NS(=O)(=O)c4ccc(N[C@H](CCN5CCOCC5)CSc5ccccc5)c(S(=O)(=O)C(F)(F)F)c4)cc3)CC2)C1 [Navitoclax] (partner 0.5 µM)
In short: as §1

[4] = compound: COc1cc2ncn(-c3cc(OCc4ccccc4C(F)(F)F)c(C(N)=O)s3)c2cc1OC + Cc1nc(NC(=O)N2CCC[C@H]2C(N)=O)sc1-c1ccnc(C(C)(C)C(F)(F)F)c1 [Alpelisib] (partner 2 µM)
In short: as §1

Cell Line: LC-2-ad
- relative viability ([1]; first compound 0.05 µM): 0.559
- relative viability ([1]; first compound 0.1581 µM): 0.543
- relative viability ([1]; first compound 0.5 µM): 0.129
- relative viability ([1]; first compound 1.581 µM): 0.161
- relative viability ([1]; first compound 5 µM): 0.129
- relative viability ([2]; first compound 0.05 µM): 0.722
- relative viability ([2]; first compound 0.1581 µM): 0.685
- relative viability ([2]; first compound 0.5 µM): 0.119
- relative viability ([2]; first compound 1.581 µM): 0.106
- relative viability ([2]; first compound 5 µM): 0.0972
- relative viability ([3]; first compound 0.05 µM): 0.359
- relative viability ([3]; first compound 0.1581 µM): 0.209
- relative viability ([3]; first compound 0.5 µM): 0.0767
- relative viability ([3]; first compound 1.581 µM): 0.0906
- relative viability ([3]; first compound 5 µM): 0.0667
- relative viability ([4]; first compound 0.05 µM): 0.791
- relative viability ([4]; first compound 0.1581 µM): 0.784
- relative viability ([4]; first compound 0.5 µM): 0.135
- relative viability ([4]; first compound 1.581 µM): 0.113
- relative viability ([4]; first compound 5 µM): 0.1

Cell Line: HCC-15
- relative viability ([1]; first compound 0.05 µM): 0.618
- relative viability ([1]; first compound 0.1581 µM): 0.769
- relative viability ([1]; first compound 0.5 µM): 0.349
- relative viability ([1]; first compound 1.581 µM): 0.139
- relative viability ([1]; first compound 5 µM): 0.127
- relative viability ([2]; first compound 0.05 µM): 0.865
- relative viability ([2]; first compound 0.1581 µM): 0.828
- relative viability ([2]; first compound 0.5 µM): 0.557
- relative viability ([2]; first compound 1.581 µM): 0.14
- relative viability ([2]; first compound 5 µM): 0.13
- relative viability ([3]; first compound 0.05 µM): 0.695
- relative viability ([3]; first compound 0.1581 µM): 0.641
- relative viability ([3]; first compound 0.5 µM): 0.316
- relative viability ([3]; first compound 1.581 µM): 0.104
- relative viability ([3]; first compound 5 µM): 0.0943
- relative viability ([4]; first compound 0.05 µM): 0.93
- relative viability ([4]; first compound 0.1581 µM): 0.749
- relative viability ([4]; first compound 0.5 µM): 0.283
- relative viability ([4]; first compound 1.581 µM): 0.142
- relative viability ([4]; first compound 5 µM): 0.1

Cell Line: NCI-H2405
- relative viability ([1]; first compound 0.05 µM): 1.21
- relative viability ([1]; first compound 0.1581 µM): 0.676
- relative viability ([1]; first compound 0.5 µM): 0.38
- relative viability ([1]; first compound 1.581 µM): 0.386
- relative viability ([1]; first compound 5 µM): 0.254
- relative viability ([2]; first compound 0.05 µM): 0.99
- relative viability ([2]; first compound 0.1581 µM): 0.757
- relative viability ([2]; first compound 0.5 µM): 0.372
- relative viability ([2]; first compound 1.581 µM): 0.424
- relative viability ([2]; first compound 5 µM): 0.386
- relative viability ([3]; first compound 0.05 µM): 0.931
- relative viability ([3]; first compound 0.1581 µM): 0.69
- relative viability ([3]; first compound 0.5 µM): 0.16
- relative viability ([3]; first compound 1.581 µM): 0.0992
- relative viability ([3]; first compound 5 µM): 0.0957
- relative viability ([4]; first compound 0.05 µM): 0.788
- relative viability ([4]; first compound 0.1581 µM): 0.634
- relative viability ([4]; first compound 0.5 µM): 0.402
- relative viability ([4]; first compound 1.581 µM): 0.401
- relative viability ([4]; first compound 5 µM): 0.38

Cell Line: LXF-289
- relative viability ([1]; first compound 0.05 µM): 0.78
- relative viability ([1]; first compound 0.1581 µM): 0.622
- relative viability ([1]; first compound 0.5 µM): 0.421
- relative viability ([1]; first compound 1.581 µM): 0.11
- relative viability ([1]; first compound 5 µM): 0.0692
- relative viability ([2]; first compound 0.05 µM): 0.884
- relative viability ([2]; first compound 0.1581 µM): 0.762
- relative viability ([2]; first compound 0.5 µM): 0.158
- relative viability ([2]; first compound 1.581 µM): 0.0992
- relative viability ([2]; first compound 5 µM): 0.0585
- relative viability ([3]; first compound 0.05 µM): 0.852
- relative viability ([3]; first compound 0.1581 µM): 0.72
- relative viability ([3]; first compound 0.5 µM): 0.192
- relative viability ([3]; first compound 1.581 µM): 0.104
- relative viability ([3]; first compound 5 µM): 0.0566
- relative viability ([4]; first compound 0.05 µM): 0.994
- relative viability ([4]; first compound 0.1581 µM): 0.801
- relative viability ([4]; first compound 0.5 µM): 0.138
- relative viability ([4]; first compound 1.581 µM): 0.0881
- relative viability ([4]; first compound 5 µM): 0.0604

Cell Line: CAL-12T
- relative viability ([1]; first compound 0.05 µM): 0.674
- relative viability ([1]; first compound 0.1581 µM): 0.558
- relative viability ([1]; first compound 0.5 µM): 0.268
- relative viability ([1]; first compound 1.581 µM): 0.141
- relative viability ([1]; first compound 5 µM): 0.159
- relative viability ([2]; first compound 0.05 µM): 0.775
- relative viability ([2]; first compound 0.1581 µM): 0.746
- relative viability ([2]; first compound 0.5 µM): 0.423
- relative viability ([2]; first compound 1.581 µM): 0.246
- relative viability ([2]; first compound 5 µM): 0.228
- relative viability ([3]; first compound 0.05 µM): 1.09
- relative viability ([3]; first compound 0.1581 µM): 1.11
- relative viability ([3]; first compound 0.5 µM): 0.573
- relative viability ([3]; first compound 1.581 µM): 0.231
- relative viability ([3]; first compound 5 µM): 0.148
- relative viability ([4]; first compound 0.05 µM): 1.03
- relative viability ([4]; first compound 0.1581 µM): 0.973
- relative viability ([4]; first compound 0.5 µM): 0.513
- relative viability ([4]; first compound 1.581 µM): 0.188
- relative viability ([4]; first compound 5 µM): 0.196

Cell Line: COR-L23
- relative viability ([1]; first compound 0.05 µM): 0.381
- relative viability ([1]; first compound 0.1581 µM): 0.416
- relative viability ([1]; first compound 0.5 µM): 0.162
- relative viability ([1]; first compound 1.581 µM): 0.0758
- relative viability ([1]; first compound 5 µM): 0.0932
- relative viability ([2]; first compound 0.05 µM): 0.887
- relative viability ([2]; first compound 0.1581 µM): 0.761
- relative viability ([2]; first compound 0.5 µM): 0.332
- relative viability ([2]; first compound 1.581 µM): 0.0808
- relative viability ([2]; first compound 5 µM): 0.1
- relative viability ([3]; first compound 0.05 µM): 1
- relative viability ([3]; first compound 0.1581 µM): 0.897
- relative viability ([3]; first compound 0.5 µM): 0.38
- relative viability ([3]; first compound 1.581 µM): 0.0788
- relative viability ([3]; first compound 5 µM): 0.091
- relative viability ([4]; first compound 0.05 µM): 0.85
- relative viability ([4]; first compound 0.1581 µM): 0.746
- relative viability ([4]; first compound 0.5 µM): 0.334
- relative viability ([4]; first compound 1.581 µM): 0.0804
- relative viability ([4]; first compound 5 µM): 0.0944

Cell Line: NCI-H1755
- relative viability ([1]; first compound 0.05 µM): 0.781
- relative viability ([1]; first compound 0.1581 µM): 0.738
- relative viability ([1]; first compound 0.5 µM): 0.631
- relative viability ([1]; first compound 1.581 µM): 0.447
- relative viability ([1]; first compound 5 µM): 0.354
- relative viability ([2]; first compound 0.05 µM): 0.995
- relative viability ([2]; first compound 0.1581 µM): 1.02
- relative viability ([2]; first compound 0.5 µM): 0.799
- relative viability ([2]; first compound 1.581 µM): 0.416
- relative viability ([2]; first compound 5 µM): 0.349
- relative viability ([3]; first compound 0.05 µM): 1.04
- relative viability ([3]; first compound 0.1581 µM): 0.957
- relative viability ([3]; first compound 0.5 µM): 0.653
- relative viability ([3]; first compound 1.581 µM): 0.222
- relative viability ([3]; first compound 5 µM): 0.183
- relative viability ([4]; first compound 0.05 µM): 0.945
- relative viability ([4]; first compound 0.1581 µM): 0.953
- relative viability ([4]; first compound 0.5 µM): 0.716
- relative viability ([4]; first compound 1.581 µM): 0.352
- relative viability ([4]; first compound 5 µM): 0.262

Cell Line: NCI-H1437
- relative viability ([1]; first compound 0.05 µM): 0.717
- relative viability ([1]; first compound 0.1581 µM): 0.779
- relative viability ([1]; first compound 0.5 µM): 0.367
- relative viability ([1]; first compound 1.581 µM): 0.334
- relative viability ([1]; first compound 5 µM): 0.326
- relative viability ([2]; first compound 0.05 µM): 1.09
- relative viability ([2]; first compound 0.1581 µM): 1.01
- relative viability ([2]; first compound 0.5 µM): 0.11
- relative viability ([2]; first compound 1.581 µM): 0.1
- relative viability ([2]; first compound 5 µM): 0.09
- relative viability ([3]; first compound 0.05 µM): 1.13
- relative viability ([3]; first compound 0.1581 µM): 1.07
- relative viability ([3]; first compound 0.5 µM): 0.151
- relative viability ([3]; first compound 1.581 µM): 0.13
- relative viability ([3]; first compound 5 µM): 0.119
- relative viability ([4]; first compound 0.05 µM): 1.11
- relative viability ([4]; first compound 0.1581 µM): 0.959
- relative viability ([4]; first compound 0.5 µM): 0.187
- relative viability ([4]; first compound 1.581 µM): 0.12
- relative viability ([4]; first compound 5 µM): 0.0887
